Consider twelve compounds from ChEMBL document CHEMBL5136994, “Conjugates of Porphyrinoid-Based Photosensitizers with Cytotoxic Drugs: Current Progress and Future Directions toward Selective Photodynamic Therapy” (J Med Chem, 2022).

The subject of experiment [1] is A549. Description: Photodynamic cytotoxicity against human A549 cells assessed as cell growth inhibition upon light irradiation by WST assay. The experiment is classed as functional, cell-based.
For experiment [2], the system named is A549. The experiment is described as follows: Cytotoxicity against human A549 cells assessed as cell growth inhibition by WST assay. The experiment is classed as functional, cell-based.
Experiment [3] deals with HeLa. The experiment is described as follows: Photodynamic cytotoxicity against human HeLa cells assessed as cell growth inhibition incubated for 4 hrs followed by fresh medium replacement without compound upon 6.95 J/cm2 light irradiation for 15 mins and further incubated for 44 hrs by resazurin based fluorimetry. The class given is functional. The settings on record: light or radiation study. Background: Alamar Blue is a resazurin reagent that responds to reducing activity.

Experiment [4] has as its system HeLa. Description: Cytotoxicity against human HeLa cells assessed as cell growth inhibition incubated for […] followed by fresh medium replacement without compound and further incubated for 44 hrs under dark condition by resazurin based fluorimetry. The experiment is classed as functional.
Experiment [5] has as its system UMUC3. Description: Photodynamic cytotoxicity against human UMUC3 cells assessed as cell growth inhibition upon light irradiation. The experiment is classed as functional, cell-based. The settings on record: UMUC3, light or radiation study.
In experiment [6] the test system is FaDu. The experiment is described as follows: Photodynamic cytotoxicity against human FaDu cells assessed as cell growth inhibition upon light irradiation. The experiment is classed as functional, cell-based. The settings on record: light or radiation study.
The test system of experiment [7] is HeLa. Description: Cytotoxicity against human HeLa cells assessed as cell growth inhibition incubated for 24 hrs by MTT assay. The class given is functional, cell-based. Background: Tetrazolium assays rely on reduction of a dye to a coloured formazan, in cell work by metabolically active cells.
Experiment [8] deals with NCI-H460. Description: Photodynamic cytotoxicity against human H460M2 cells assessed as cell growth inhibition incubated for 24 hrs followed by medium replacement without compound upon 1 J/cm2 light irradiation and measured after 24 hrs by MTT assay. The experiment is classed as functional, cell-based.
For experiment [9], the system named is NCI-H460. The experiment is described as follows: Cytotoxicity against human H460M2 cells assessed as cell growth inhibition incubated for 24 hrs by MTT assay. The experiment is classed as functional, cell-based.
Experiment [10] deals with HeLa. The experiment is described as follows: Photodynamic cytotoxicity against human HeLa cells assessed as cell growth inhibition incubated for 24 hrs followed by medium replacement without compound upon 1 J/cm2 light irradiation and measured after 24 hrs by MTT assay. The experiment is classed as functional, cell-based.
Experiment [11] has as its system HBL-100. Description: Photodynamic cytotoxicity against human HBL-100 cells assessed as cell growth inhibition incubated for 24 hrs by MTT assay. The class given is functional, cell-based.
Experiment [12] has as its system HBL-100. The experiment is described as follows: Photodynamic cytotoxicity against human HBL-100 cells assessed as cell growth inhibition incubated for 24 hrs followed by medium replacement without compound upon 1 J/cm2 light irradiation and measured after 24 hrs by MTT assay. The class given is functional, cell-based.
Experiment [13] has as its system UMUC3. The experiment is described as follows: Photodynamic cytotoxicity against human UMUC3 cells assessed as cell growth inhibition upon 1 J/cm2 light irradiation. The following applies: UMUC3, light or radiation study. The experiment is classed as functional, cell-based.
For experiment [14], the system named is FaDu. The experiment is described as follows: Photodynamic cytotoxicity against human FaDu cells assessed as cell growth inhibition upon 1 J/cm2 light irradiation. The class given is functional, cell-based. The following applies: light or radiation study.
Experiment [15] concerns A549. The experiment is described as follows: Cytotoxicity against human A549 cells assessed as cell growth inhibition. The class given is functional, cell-based.
In experiment [16] the test system is A549. The experiment is described as follows: Photodynamic cytotoxicity against human A549 cells assessed as cell growth inhibition upon light irradiation. The experiment is classed as functional, cell-based. The following applies: A549, light or radiation study.
Where [17] appears, read: Homo sapiens, A549, light or radiation study.

For the compound `C[n+]1ccc(-c2c3nc(c(-c4cc[n+](C)cc4)c4ccc([nH]4)c(-c4cc[n+](C)cc4)c4nc(c(-c5cc[n+](C)cc5)c5ccc2[nH]5)C=C4)C=C3)cc1`, the IC50 (in general, the concentration at which inhibition is half-maximal) in experiment [1] (setting [17]) was 300 nM; in experiment [2] (Homo sapiens, A549), > 100000 nM.

Take `C1=Cc2nc1c(-c1ccncc1)c1ccc([nH]1)c(-c1ccncc1)c1nc(c(-c3ccncc3)c3ccc([nH]3)c2-c2ccncc2)C=C1`: the IC50 in experiment [3] is 5800 nM; in experiment [4] it was > 100000 nM.

For the compound `CCCCCCOC(C)C1=C(C)c2cc3nc(c4c5[nH]c(cc6[nH]c(cc1n2)c(C)c6CC)c(C)c5C(=O)C4)[C@@H](CCC(=O)O)[C@@H]3C` (stereo partly drawn), the IC50 is 68 nM in experiment [5] and 43 nM in [6].

As for `C[n+]1ccc(-c2c3nc(c(-c4cc[n+](C)cc4)c4ccc([nH]4)c(-c4cc[n+](C)cc4)c4nc(c(-c5ccc(OCc6cn(CCc7c8[nH]c9ccccc9c8cc[n+]7C)nn6)cc5)c5ccc2[nH]5)C=C4)C=C3)cc1`, the IC50 is 60 nM in experiment [1] (a549) and > 100000 nM in experiment [2] (a549).

Take `C[n+]1ccc(-c2c3nc(c(-c4cc[n+](C)cc4)c4ccc([nH]4)c(-c4cc[n+](C)cc4)c4nc(c(-c5ccc(C(=O)NCCOCCOCCNC(=O)CN6CCNCCNCC6)cc5)c5ccc2[nH]5)C=C4)C=C3)cc1`: the IC50 in [7], in [8], in experiment [9], in experiment [10], in experiment [11] and in [12] was > 100000 nM in each case.

Take `CCc1c(C)c2cc3nc(cc4nc(c5c6[nH]c(cc1[nH]2)c(C)c6C(=O)C5)[C@@H](CCC(=O)OC)[C@@H]4C)C(C)=C3C(C)OCc1ccc(C#Cc2cccc(Nc3ncnc4cc(OCCOC)c(OCCOC)cc34)c2)cc1` (stereo partly drawn): the IC50 in experiment [13] came to 21 nM; in experiment [14], 60 nM.

For `CCCCCCOC(C)C1=C(C)c2cc3nc(c4c5[nH]c(cc6[nH]c(cc1n2)c(C)c6CC)c(C)c5C(=O)C4)[C@@H](CCC(=O)NCCCCn1cc(-c2cccc(Nc4ncnc5cc(OCCOC)c(OCCOC)cc45)c2)nn1)[C@@H]3C` (stereo partly drawn), the IC50 was 20 nM in [13] and 18 nM in experiment [14].

With `CCc1c(C)c2cc3nc(cc4nc(c5c6[nH]c(cc1[nH]2)c(C)c6C(=O)C5)[C@@H](CCC(=O)O)[C@@H]4C)C(C)=C3C(C)OCc1cccc(C#Cc2cccc(Nc3ncnc4cc(OCCOC)c(OCCOC)cc34)c2)c1` (stereo partly drawn), the values for the IC50 in [13] and in [14] were 54 nM and 31 nM, respectively.

As to `CCc1c(C)c2cc3nc(cc4nc(c5c6[nH]c(cc1[nH]2)c(C)c6C(=O)C5)[C@@H](CCC(=O)OC)[C@@H]4C)C(C)=C3COCc1cccc(C#Cc2cccc(Nc3ncnc4cc(OCCOC)c(OCCOC)cc34)c2)c1`, the figures for the IC50 in experiment [13] and in experiment [14] were 76 nM and 23 nM, respectively.

Consider `C1=Cc2nc1c(-c1ccncc1)c1ccc([nH]1)c(-c1ccncc1)c1nc(c(-c3ccc(OCc4cn(CCc5nccc6c5[nH]c5ccccc56)nn4)cc3)c3ccc([nH]3)c2-c2ccncc2)C=C1`, for which the IC50 in [1] (setting [17]) was 43100 nM; in experiment [2] (Homo sapiens, A549), > 100000 nM.

As to `CCc1c(C)c2cc3nc(cc4nc(c5c6[nH]c(cc1[nH]2)c(C)c6C(=O)C5)[C@@H](CCC(=O)OC)[C@@H]4C)C(C)=C3C(C)OCc1cccc(C#Cc2cccc(Nc3ncnc4cc(OCCOC)c(OCCOC)cc34)c2)c1` (stereo partly drawn), the IC50 in experiment [13] came to 59 nM; in [14], 35 nM.

Take `C1=Cc2nc1c(-c1ccccc1)c1ccc([nH]1)c(-c1ccccc1)c1nc(c(-c3ccc(OCc4cn(CC[n+]5c6ccccc6cc6[nH]c7ccccc7c65)nn4)cc3)c3ccc([nH]3)c2-c2ccccc2)C=C1`: the results for the IC50 in [15] and in experiment [16] were 33600 nM and 2500 nM, respectively.
